Some test systems named below: U251 CNS; RPMI-8226 leukemia; OVCAR-8 ovarian; DMS 114 small cell lung; SNB-19 CNS; SK-OV-3 ovarian; SF-539 CNS; SNB-75 CNS; UACC-62 melanoma; NCI-H23 lung; ACHN renal; IGROV1 ovarian; COLO 205 colon; SK-MEL-5 melanoma; MDA-MB-435; SF-268 CNS; MDA-N; HCT-15 colon; SN12C renal; MDA-MB-231 breast.
Holding throughout (experiment): NCI-60 cell line screen, 48 h

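A five-concentration, 48-hour dose response in 96-well plates underlies each endpoint, interpolated linearly between surrounding concentrations. At the TGI there is no net growth.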

Regarding `CCCc1cc(OC(=O)c2c(O)cc(OC)cc2CCC)cc(O)c1C(=O)O`, the TGI in the assay with U251 CNS is 68.4 µM; in the assay on RPMI-8226 leukemia, 60.7 µM; with OVCAR-8 ovarian, more than 100 µM; in the assay with DMS 114 small cell lung, 56 µM; in the assay with SNB-19 CNS it was more than 100 µM; with SK-OV-3 ovarian it was 68.4 µM. The TGI in the assay with SF-539 CNS was 34.7 µM; in the assay on SNB-75 CNS, 73.4 µM; with UACC-62 melanoma, 78.1 µM; in the assay on NCI-H23 lung, 42.8 µM; with ACHN renal, 80.2 µM; in the assay with IGROV1 ovarian it was more than 100 µM. The compound also had a TGI with COLO 205 colon of 79.2 µM.

Regarding `O=C1OC([C@H](O)c2cccnc2)c2ccccc21` (some centres undefined), the TGI with U251 CNS, in the assay on RPMI-8226 leukemia, with SK-MEL-5 melanoma, with MDA-MB-435, in the assay on SF-268 CNS and in the assay with OVCAR-8 ovarian was more than 10 µM in each case. Besides, the TGI in the assay on MDA-N, in the assay on SNB-19 CNS, with SK-OV-3 ovarian, in the assay on SF-539 CNS, in the assay with HCT-15 colon and with SNB-75 CNS was more than 10 µM throughout. Also, the TGI with UACC-62 melanoma, in the assay with NCI-H23 lung, with ACHN renal, with IGROV1 ovarian, with SN12C renal and in the assay on COLO 205 colon was more than 10 µM in each case. Also, the TGI in the assay on MDA-MB-231 breast was more than 10 µM.

With `O=C1NC2(CCNCC2)Oc2ccccc21`, the TGI in the assay with U251 CNS, with RPMI-8226 leukemia, in the assay on SK-MEL-5 melanoma, with MDA-MB-435, in the assay on SF-268 CNS and in the assay on OVCAR-8 ovarian was more than 100 µM each time. Moreover, the TGI in the assay on MDA-N, in the assay with SNB-19 CNS, with SK-OV-3 ovarian, in the assay on SF-539 CNS, in the assay with HCT-15 colon and in the assay with SNB-75 CNS was more than 100 µM in each case. For the same compound, the TGI in the assay with UACC-62 melanoma, in the assay on NCI-H23 lung, in the assay with ACHN renal, in the assay on IGROV1 ovarian, with SN12C renal and in the assay on COLO 205 colon was more than 100 µM each time. In addition, the TGI in the assay on MDA-MB-231 breast was more than 100 µM.

Take `O=[N+]([O-])/C(Cl)=C(/C(Cl)=C(Cl)Cl)N1CCOCC1`: the TGI amounted to 27 µM with U251 CNS; 6.58 µM with RPMI-8226 leukemia; 3.48 µM in the assay with SK-MEL-5 melanoma; 7.64 µM with MDA-MB-435; 24.4 µM in the assay with SF-268 CNS; 11.9 µM with OVCAR-8 ovarian. Also, the TGI with MDA-N worked out at 6.77 µM; in the assay on SNB-19 CNS, 38.3 µM; with SK-OV-3 ovarian it was 27.3 µM; with SF-539 CNS, 9.05 µM; with HCT-15 colon, 3.24 µM; in the assay on SNB-75 CNS, 17.9 µM. The TGI is 5.62 µM in the assay on UACC-62 melanoma; 5.68 µM with NCI-H23 lung; 20.5 µM in the assay on ACHN renal; 3.88 µM in the assay with IGROV1 ovarian; 20 µM in the assay with SN12C renal; 5.45 µM in the assay on COLO 205 colon. The compound further registered a TGI in the assay on MDA-MB-231 breast of 8.89 µM.

`COC(=O)C(=O)Nc1cc2c3c(c1)Oc1cccc4c1C3(C)c1c(cccc1O2)O4`: the TGI in the assay on U251 CNS, in the assay with RPMI-8226 leukemia, with SK-MEL-5 melanoma, in the assay on MDA-MB-435, with SF-268 CNS and in the assay on OVCAR-8 ovarian was more than 100 µM in each case. Besides, the TGI in the assay on MDA-N was more than 100 µM; in the assay with SNB-19 CNS, more than 100 µM; in the assay on SK-OV-3 ovarian it was more than 100 µM; in the assay on SF-539 CNS it was more than 76.6 µM; in the assay with HCT-15 colon it was more than 100 µM; in the assay on SNB-75 CNS it was more than 100 µM. The TGI in the assay on UACC-62 melanoma was more than 100 µM; with NCI-H23 lung, more than 100 µM; with ACHN renal, more than 100 µM; with IGROV1 ovarian, more than 100 µM; with SN12C renal, more than 100 µM; in the assay with COLO 205 colon, more than 31.6 µM. Moreover, the TGI in the assay with MDA-MB-231 breast was more than 100 µM.

Turning to `COc1ccc2nc3ccc(OC)cc3c(SCCCl)c2c1`, the TGI in the assay on U251 CNS is more than 100 µM; with RPMI-8226 leukemia, 10.6 µM; in the assay on SK-MEL-5 melanoma, more than 100 µM; with MDA-MB-435, more than 49.5 µM; with SF-268 CNS it was more than 100 µM; with OVCAR-8 ovarian, more than 35.2 µM. Besides, the TGI in the assay with MDA-N is more than 100 µM; with SNB-19 CNS, more than 85.5 µM; with SK-OV-3 ovarian it was more than 100 µM; in the assay on SF-539 CNS it was more than 50.5 µM; with HCT-15 colon, more than 100 µM; in the assay on SNB-75 CNS, more than 96.8 µM. For the same compound, the TGI with UACC-62 melanoma is more than 77.6 µM; in the assay with NCI-H23 lung, more than 100 µM; in the assay on ACHN renal, more than 100 µM; in the assay on IGROV1 ovarian, more than 100 µM; in the assay with SN12C renal it was more than 100 µM; in the assay on COLO 205 colon, more than 72.3 µM. Also, the TGI with MDA-MB-231 breast came to 99.3 µM.

For the compound `CC(C)(C)OC(=O)CCCCCNC(=O)CCCCCNC(=O)CCC(CN(CC(=O)OCc1ccccc1)CC(=O)OCc1ccccc1)N(CC(=O)OCc1ccccc1)CC(=O)OCc1ccccc1` (centres undefined), the TGI in the assay on U251 CNS, in the assay on RPMI-8226 leukemia, in the assay with SK-MEL-5 melanoma, with MDA-MB-435, in the assay with SF-268 CNS and in the assay with OVCAR-8 ovarian was more than 100 µM throughout. Further, the TGI in the assay on MDA-N was more than 100 µM; in the assay with SNB-19 CNS it was more than 100 µM; in the assay with SK-OV-3 ovarian it was more than 100 µM; in the assay on SF-539 CNS, more than 100 µM; in the assay with HCT-15 colon, more than 100 µM; with SNB-75 CNS it was 81.9 µM. Also, the TGI in the assay with UACC-62 melanoma, in the assay on NCI-H23 lung, in the assay on ACHN renal, in the assay on IGROV1 ovarian, in the assay with SN12C renal and in the assay with COLO 205 colon was more than 100 µM in each case. The same compound displayed a TGI in the assay on MDA-MB-231 breast of more than 100 µM.

For the compound `Cc1ccc2nc(NS(=O)(=O)c3cc(C)c(Cl)cc3S)[nH]c2c1`, the TGI in the assay on U251 CNS, with RPMI-8226 leukemia, with SK-MEL-5 melanoma, with MDA-MB-435, in the assay on SF-268 CNS and with OVCAR-8 ovarian was more than 100 µM each time. In addition, the TGI in the assay with MDA-N, in the assay with SNB-19 CNS, in the assay with SK-OV-3 ovarian, with SF-539 CNS, in the assay on HCT-15 colon and with SNB-75 CNS was more than 100 µM throughout. In addition, the TGI in the assay with UACC-62 melanoma, with NCI-H23 lung, in the assay with ACHN renal, in the assay with IGROV1 ovarian, in the assay with SN12C renal and with COLO 205 colon was more than 100 µM in each case. In the assay on MDA-MB-231 breast, this compound came in with a TGI of more than 100 µM.

Regarding `CN1CCc2ccccc2C(C(=O)c2ccc3c(c2)OCO3)C1=O` (centres undefined), the TGI with U251 CNS, in the assay with RPMI-8226 leukemia, in the assay on SK-MEL-5 melanoma, in the assay with SF-268 CNS, in the assay with OVCAR-8 ovarian and in the assay on DMS 114 small cell lung was more than 100 µM in each case. The TGI in the assay on SNB-19 CNS, with SK-OV-3 ovarian, with HCT-15 colon, in the assay with SNB-75 CNS, in the assay on UACC-62 melanoma and in the assay with NCI-H23 lung was more than 100 µM throughout. Further, the TGI with ACHN renal, in the assay with IGROV1 ovarian, in the assay on SN12C renal and in the assay with COLO 205 colon was more than 100 µM in each case.

Regarding `O=[N+]1[C@H](c2ccccc2)[C@H](c2ccccc2)N1[O-]`, the TGI with U251 CNS came out at 33.5 µM; in the assay on RPMI-8226 leukemia, 25.4 µM; with SK-MEL-5 melanoma, 30.9 µM; in the assay with MDA-MB-435 it was 34.3 µM; in the assay on SF-268 CNS, 58.7 µM; in the assay on OVCAR-8 ovarian, 32.7 µM. Also, the TGI was 30.7 µM in the assay with MDA-N; 35.1 µM in the assay with SNB-19 CNS; 96.5 µM in the assay with SK-OV-3 ovarian; 32.7 µM in the assay on SF-539 CNS; 24.7 µM with HCT-15 colon; 37.2 µM in the assay on SNB-75 CNS. Also, the TGI came to 32.3 µM with UACC-62 melanoma; 32 µM in the assay on NCI-H23 lung; 32.3 µM with ACHN renal; 26.8 µM with IGROV1 ovarian; 32.4 µM in the assay with SN12C renal; 37.9 µM in the assay on COLO 205 colon. In the assay on MDA-MB-231 breast, this compound displayed a TGI of 38.2 µM.

As for `O=[N+]([O-])c1ccc(-c2nn3c(C45CC6CC(CC(C6)C4)C5)nnc3s2)c(Cl)c1`, the TGI with U251 CNS, in the assay with RPMI-8226 leukemia, in the assay with SK-MEL-5 melanoma, in the assay on MDA-MB-435, in the assay with SF-268 CNS and with OVCAR-8 ovarian was more than 100 µM throughout. The TGI in the assay with MDA-N, in the assay with SNB-19 CNS, in the assay with SK-OV-3 ovarian, in the assay with SF-539 CNS, in the assay with HCT-15 colon and in the assay on SNB-75 CNS was more than 100 µM in each case. In addition, the TGI in the assay on UACC-62 melanoma, with NCI-H23 lung, in the assay with ACHN renal, with IGROV1 ovarian, in the assay with SN12C renal and in the assay on COLO 205 colon was more than 100 µM in each case. In the assay on MDA-MB-231 breast, this compound showed a TGI of more than 100 µM.

As to `C[C@@H]1CC[C@@H]2[C@@H](C1)O[C@@H]([C@@H](C)OCc1ccccc1)SC2(C)C`, the TGI in the assay with U251 CNS worked out at 32.6 µM; in the assay with RPMI-8226 leukemia, 35.4 µM; in the assay on SK-MEL-5 melanoma, 31.3 µM; in the assay with MDA-MB-435, 35.8 µM; in the assay with SF-268 CNS it was 51.8 µM; in the assay with OVCAR-8 ovarian it was 58.8 µM. Further, the TGI in the assay with MDA-N was 36.3 µM; with SNB-19 CNS, 33.6 µM; with SK-OV-3 ovarian, 59.9 µM; with SF-539 CNS it was 33.6 µM; in the assay on HCT-15 colon, 36.8 µM; in the assay on SNB-75 CNS, 34 µM. Also, the TGI in the assay with UACC-62 melanoma came to 43.2 µM; in the assay with NCI-H23 lung, 51.5 µM; in the assay with ACHN renal, 31.6 µM; in the assay with IGROV1 ovarian, 63.3 µM; with SN12C renal it was 32.3 µM; with COLO 205 colon, 32.7 µM. The compound further yielded a TGI with MDA-MB-231 breast of 38.2 µM.

The values are drawn from PubChem BioAssay (NCI).
